Measurements reported in PMC7265429, “Characterization of a new small-molecule inhibitor of HDAC6 in glioblastoma” (Cell Death & Disease, 2020).

Assays:
[1] = test system: U87-MG cells; assay: Cell viability in combined treatments with TMZ; assay type: cell-based; conditions: Homo sapiens, U-87 MG, 100 μM TMZ, 72 h, read-out: cell viability, TMZ alone
Protocol: (§1) Glioma-cell lines were seeded at a density of 1.5 × 10^3 cells/well in 96-well plates, with six replicates per condition. […] Cell viability was determined by MTT assay at 72 h after treatment. For this, MTT (3-(4,5-dimethyl-2-thiazolyl)-2,5-diphenyl-2H-tetrazolium bromide) reagent was added and, after a 3 h incubation at 37 °C and 5% CO2, media was removed and the formed crystals were resuspended in DMSO. Plates were measured at 570 nm using a spectrophotometer. Results were analyzed by GraphPad Prism software and IC50 values were calculated.

[2] = test system: U87-MG cells; assay: Dose-response MTT cell viability assay, U87-MG; assay type: cell-based; conditions: Homo sapiens, U-87 MG, 72 h, Fig. 2d
Protocol: as §1

[3] = test system: U251-MG cells; assay: Dose-response MTT cell viability assay, U251-MG; assay type: cell-based; conditions: Homo sapiens, U-251, 72 h, Fig. 2d
Protocol: as §1

[4] = test system: U373-MG cells; assay: Dose-response MTT cell viability assay, U373-MG; assay type: cell-based; conditions: Homo sapiens, 72 h, Fig. 2d
Protocol: as §1

[5] = test system: T98-G cells; assay: Dose-response MTT cell viability assay, T98-G; assay type: cell-based; conditions: Homo sapiens, T98G, 72 h, Fig. 2d
Protocol: as §1

[6] = test system: A172 cells; assay: Dose-response MTT cell viability assay, A172; assay type: cell-based; conditions: Homo sapiens, A 172, 72 h, Fig. 2d
Protocol: as §1

[7] = test system: patient-derived GNS166 stem cells; assay: Dose-response MTT cell viability assay, GNS166; assay type: cell-based; conditions: Homo sapiens, 72 h, Fig. 2d
Protocol: as §1

[8] = test system: patient-derived GNS179 stem cells; assay: Dose-response MTT cell viability assay, GNS179; assay type: cell-based; conditions: Homo sapiens, 72 h, Fig. 2d
Protocol: as §1

[9] = test system: acetyl-α-tubulin (HDAC6 main target) in U251-MG cells; assay: Western blot of acetyl-α-tubulin and cleaved PARP in U251-MG; assay type: cell-based, human; conditions: 10 nM, 48 h
Protocol: Immunoblots were performed following standard procedures. […] Detection was performed by chemiluminiscence using NOVEX ECL Chemi Substrate (ThermoFisher).

IC50 [2] [µM] | IC50 [3] [µM] | SMILES | viability at 100 µM [1] [%] | IC50 [4] [µM] | IC50 [5] [µM] | IC50 [6] [µM] | IC50 [7] [µM] | IC50 [8] [µM] | α-tubulin hyperacetylation [9]
 |  | Cn1nnc2c(C(N)=O)ncn2c1=O [TMZ, temozolomide] | 85 |  |  |  |  |  | 
23.7 | 26.3 | CN1CCc2c(c3ccccc3n2Cc2ccc(C(=O)NO)cc2)C1 [Tubastatin A] |  | 13.2 | 104 | 52.5 | 26.4 | 175 | did not
